Assay results from publication PMC7486399 (Nature Communications, 2020).
“And” between values parts separate entries of the source, which are not always exact repeats. Equal entries are not always repeated.

Columns and labels:
A549 cells [1] = type: cell-based, human
A549-ACE2 cells [2] = type: cell-based, human
[3] = tested on: interaction between the S1 subunit and ACE2 receptor; assay: AFM competition binding: ACE2-derived peptides vs S1 subunit-ACE2 binding on model surface; details: for binding probability (BP) with peptide (Fig. 4b) / reduction in the BP (S1-ACE2 complex formation): 250 ms contact time; for binding probability (BP) with peptide (Fig. 4b): mean, N ≥ 3, 0 µM BP: 22-44 10.8724, 22-57 8.6263, 22-44-g-351-357 10.6771, 351-357 8.65885, PEG tip 2.60417; for delta binding (change of binding probability, Fig. 4c): vs 0 µM; for decrease in the BP on purified receptor: AFM on purified ACE2 receptor; for 50% inhibitory concentration (IC50): S1-ACE2 binding by AFM, estimated from 1, 10, 100 µM; for reduction in the BP (S1-ACE2 complex formation): concentration not printed in the sentence (tested 1, 10, 100 µM)
[4] = tested on: mixed culture of A549 and A549-ACE2 cells; type: cell-based, human; details: AFM
A549 cells [5] = assay: AFM S1 binding probability on A549 cells before and after [22-57] peptide; type: cell-based, human; details: for BP (Fig. 5a), 100 μM peptide: A549 cells, 100 μM [22–57]
A549-ACE2 cells [6] = assay: AFM S1 binding probability on A549-ACE2 cells before and after [22-57] peptide; type: cell-based, human; details: for BP (Fig. 5a), 100 μM peptide: 100 μM [22–57]
[7] = 1 µM peptide, ddH2O control 27.2772
[8] = 10 µM peptide, ddH2O control -35.4337
[9] = 100 µM peptide, ddH2O control -21.9737

Substance | binding probability (BP) with peptide (Fig. 4b) ([3]; 1 µM peptide) | delta binding (change of binding probability, Fig. 4c) [3, 7] | binding probability (BP) with peptide (Fig. 4b) ([3]; 10 µM peptide) | delta binding (change of binding probability, Fig. 4c) [3, 8] | binding probability (BP) with peptide (Fig. 4b) ([3]; 100 µM peptide) | delta binding (change of binding probability, Fig. 4c) [3, 9] | decrease in the BP on purified receptor [3] | 50% inhibitory concentration (IC50) [3] | reduction in the BP (S1-ACE2 complex formation) [3] | decrease in the BP on living cells [4] | also measured
9-O-acetyl-2-α-O-propargyl-SC [SA] | – | – | – | – | – | – | – | – | – | – | binding probability + SA (Fig. 3f) (A549 cells [1]): 4.4 and 4.6 and 7 and 7.2; binding frequency after SA injection (A549 cells [1]; A549 cells, 9-O-acetyl-sialogycans, 1 mM): ~ 7%; binding probability + SA (Fig. 3f) (A549-ACE2 cells [2]): 12.6 and 8.7 and 9 and 10.4; binding frequency after SA injection (A549-ACE2 cells [2]; […], 9-O-acetyl-sialogycans, 1 mM): ≈ 10%
[22–44]: ACE2-derived peptide fragment 22–44, N-terminal helix of ACE2 (sequence in Supplementary Fig. 9) | 6.934 | -48.3738 | 4.232 | -79.2642 | 4.6224 | -75.9263 | > 70% | in the µM range | ~ 76% | > 70% | –
[22–44–g–351–357]: ACE2-derived fragments 22–44 and 351–357 joined by a glycine residue (EEQAKTFLDKFNHEAEDLFYQSSGLGKGDFR) | 6.641 | -45.2583 | 4.915 | -63.4203 | 4.655 | -62.3402 | – | – | – | – | binding inhibition, result in words ([3]; compared with the other peptides): we did not notice any strong improvement in the binding inhibition
[22–57]: ACE2-derived peptide fragment 22–57, N-terminal helix of ACE2 (sequence in Supplementary Fig. 9) | 6.706 | -31.3144 | 5.599 | -50.4102 | 4.167 | -74.5041 | > 70% | in the µM range | ~ 74% | > 70% | change of BP after peptide injection (A549 cells [5]; A549 cells (both cell types), 100 µM peptide): significant decrease of the BP on both cell types; BP (Fig. 5a), 100 μM peptide (A549 cells [5]; replicate 1 (0 μM: 10.8)): 4.3; BP (Fig. 5a), 100 μM peptide (A549 cells [5]; replicate 2 (0 μM: 9.7)): 4.1; BP (Fig. 5a), 100 μM peptide (A549 cells [5]; replicate 3 (0 μM: 7.7)): 1.9; BP (Fig. 5a), 100 μM peptide (A549-ACE2 cells [6]; replicate 1 (0 μM: 17)): 9.7; BP (Fig. 5a), 100 μM peptide (A549-ACE2 cells [6]; replicate 2 (0 μM: 15.7)): 8.5; BP (Fig. 5a), 100 μM peptide (A549-ACE2 cells [6]; replicate 3 (0 μM: 29)): 4.4; BP (Fig. 5a), 100 μM peptide (A549-ACE2 cells [6]; replicate 4 (0 μM: 15.9)): 10.1; BP level after peptide injection (A549-ACE2 cells [6]; 100 µM peptide): reaching a level close to the one of the control cells
[351–357]: ACE2-derived peptide fragment 351–357, part of a hot binding spot (LGKGDFR; UniProt Q9BYF1 351-357, looked up, fragment) | 5.599 | -43.4556 | 6.3151 | -34.8403 | 5.339 | -54.9815 | – | – | – | – | –
cRGD | – | – | – | – | – | – | – | – | – | – | binding probability + RGD (Fig. 3f) (A549 cells [1]; S1 tip on A549 cells after cRGD, 500 μM, 37 °C, individual data points): 13.1 and 7.8 and 10.6 and 9.5; reduction of the binding frequency after cRGD injection (A549-ACE2 cells [2]; A549-ACE2 cells, cRGD 500 μM): 1–2%; binding probability + RGD (Fig. 3f) (A549-ACE2 cells [2]; S1 tip on A549-ACE2 cells after cRGD, 500 μM, 37 °C, individual data points): 14.1 and 9.9 and 20.6 and 14.7
